The values that follow come from patent US10633707B2, “Markers for detecting microsatellite instability in cancer and determining synthetic lethality with inhibition of the DNA base excision repair pathway” (VIB VZW, priority 2012, dated 2020).

Molecules are shown by their SMILES. Entries after “also recorded” stand apart in the source; their conditions may differ.

One series deals with MMR-proficient cells. Nature of the series: Cell proliferation with xCELLigence RTCA system, MMR-proficient cells. The conditions noted are these: 1, 3 and 10 μM olaparib, 48 hours. Format: cell-based, human. As for the experimental part: (§1) As MMR-deficient tumors are characterized by reduced activity of the DSB repair by HR pathway, it was hypothesized that these tumors, similar to BRCA1-deficient tumors (Farmer et al., 2005), can be selectively targeted by PARP inhibition. All eight MMR-deficient and four MMR-proficient cultures were dose-dependently (1, 3 and 10 μM) exposed to olaparib and effects on proliferation were assessed.
Real-Time Cell Analyzer (RTCA) xCELLigence System (Roche Applied Science, Mannheim, Germany) was used to dynamically monitor cell proliferation rates. The system measures electrical impedance across microelectrodes on the bottom of tissue culture E-plates. The impedance measurement provides quantitative information about cell number, viability, morphology and adhesion. 5,000 cells/well were seeded on E-plate 16 (Roche) in 200 μl medium. […] Each treatment condition was measured in triplicate. Dynamic cell index values were monitored in five-minute intervals for 48 hours after treatments. […]
Cell Proliferation: Real-Time Cell Analyzer (RTCA) xCELLigence System (Roche) was used to dynamically monitor cell proliferation rates. […] Each condition was measured in triplicate and all experiments were done in duplicate at different time points. Dynamic cell index values were monitored for 48 hours after treatment.

The test system of another series is BRCA1-deficient cells. Particulars: 3 μM olaparib; cited from earlier work.
The subject of series [1] is MMR-deficient primary tumor cultures and cancer cell lines. Nature of the series: RAD51 immunostaining (RAD51 foci formation) after olaparib, MMR-deficient cells. It is filed as cell-based, human. Particulars: 10 μM olaparib, 24 hours, average of 8 MMR-deficient cultures. On the procedure: (§2) To investigate whether the DSB repair by HR pathway is functionally inactivated in MMR-deficient tumors, it was assessed the DSB repair activity in eight MMR-deficient and four MMR-proficient primary tumor cultures and cancer cell lines. The MMR status of these cells was analyzed using the 56-marker panel and confirmed by the Bethesda Panel.
(§3) Nine primary endometrial and ovarian tumor cell cultures were established from patients undergoing surgery at the Division of Gynecologic Oncology, University Hospitals Gasthuisberg, Leuven (Belgium). Only after providing informed consent, patients were included in the study. The following protocol was used to generate primary tumor cultures. First, tumor samples were placed into sterile RPMI medium supplemented with Penicillin/Streptomycin (1000 U/ml) and Fungizone (0.5 μg/ml) (all from Life Technologies) for transport from the surgery room to the cell culture laboratory. […]
(§4) Primary tumor cell cultures were grown in RPMI Medium 1640 (Gibco) supplemented with 20% fetal bovine serum, 2 mM L-Glutamine, 100 U/ml of penicillin, 100 μg/ml of streptomycin, 1 μg/ml of fungizone and 10 μg/ml of gentamicin up to 20 passages. […] They were also routinely monitored for Mycoplasma contamination and no Mycoplasma growth has been detected. […]

The subject of series [2] is MMR-proficient primary tumor cultures and cancer cell lines. Nature of the series: RAD51 immunostaining (RAD51 foci formation) after olaparib, MMR-proficient cells. It is filed as cell-based, human. The conditions noted are these: 10 μM olaparib, 24 hours, average of 4 MMR-proficient cultures. As for the experimental part: as §2, §3, §4
Another series has as its system MMR-deficient cells. In words: Cell proliferation with xCELLigence RTCA system, MMR-deficient cells. Particulars: for decrease in proliferation versus untreated cells: average of 8 MMR-deficient cultures, 48 hours. Format: cell-based, human. As for the experimental part: as §1
Real-Time Cell Analyzer (RTCA) xCELLigence System (Roche Applied Science, Mannheim, Germany) was used to dynamically monitor cell proliferation rates. The system measures electrical impedance across microelectrodes on the bottom of tissue culture E-plates. The impedance measurement provides quantitative information about cell number, viability, morphology and adhesion. 5,000 cells/well were seeded on E-plate 16 (Roche) in 200 μl medium. 24 hours post-seeding, cells were treated with olaparib to the desired final concentration (1, 3, 10 μM olaparib). The final DMSO percent in all wells was 0.1%. Each treatment condition was measured in triplicate. Dynamic cell index values were monitored in five-minute intervals for 48 hours after treatments. Cell index values were normalized to the vehicle-treated control for each cell.
Cell Proliferation: Real-Time Cell Analyzer (RTCA) xCELLigence System (Roche) was used to dynamically monitor cell proliferation rates. 5,000 cells/well were seeded on E-plate 16 (Roche) in 200 μl medium. Olaparib (AZD-2281, JS Research Chemicals Trading) was dissolved in DMSO. 24 hours post-seeding, cells were treated with olaparib ([…]). Each condition was measured in triplicate and all experiments were done in duplicate at different time points. Dynamic cell index values were monitored for 48 hours after treatment.

The test system of series [3] is MMR-deficient and MMR-proficient tumor cells. Nature of the series: γH2AX immunostaining (unrepaired DNA damage) after olaparib. Format: cell-based, human. Particulars: all cells regardless of MMR status. As for the experimental part:
Primary tumor cultures and immunofluorescence: Nine primary endometrial and ovarian tumor cell cultures were established from tumors of the patients undergoing surgery. Primary tumor cell cultures were grown in RPMI1640 medium (GIBCO) supplemented with 20% FBS, 2 mM L-Glutamine, 100 U/ml penicillin, 100 μg/ml streptomycin, 1 μg/ml fungizone and 10 μg/ml gentamicin up to 20 passages. 25,000 cells/well were seeded on eight-well slides (Nunc) in 400 μl medium and grown for 24 hours. Following exposure to 0 or 10 μM olaparib, slides were rinsed in PBS, fixed in paraformaldehyde at 37° C., permeabilized with 0.1% Triton X-100 and blocked with BSA. […] The percentage of foci positive cells (>5 foci per nucleus) was determined on a Zeiss LSM 510 inverted confocal microscope using Plan-Neofluar 40×/1.3 oil immersion objective. For each experiment, at least 100 nuclei were analyzed.
The degree of unrepaired DNA damage upon olaparib treatment was measured with γH2AX immunofluorescence. […]
γH2AX and RAD51 foci were visualized with Zeiss LSM 510 inverted confocal microscope using Plan-Neofluar 40x/1.3 oil immersion objective and excitation wavelengths of 488 and 750 nm (Chameleon coherent two-photon laser). […] Nuclei with >5 foci were scored positive, and at least 100 nuclei were counted per culture and per condition.

The next series has as its system BRCA2-deficient cells. The conditions noted are these: 10 μM olaparib; cited from earlier work.

Consider `O=C(c1cc(Cc2n[nH]c(=O)c3ccccc23)ccc1F)N1CCN(C(=O)C2CC2)CC1` [olaparib], for which the “effect on proliferation (in words)” value with MMR-proficient cells was “no effect; also recorded: did not respond to olaparib”; in the series with MMR-deficient cells (1, 3 and 10 μM olaparib, MMR-deficient cells) it was “dose-dependent decrease in proliferation”. The figures for the decrease in viability in the series on BRCA1-deficient cells and in the series with BRCA2-deficient cells were 78% and 91%, respectively. Besides, the “cells showing RAD51 foci formation (>5 foci per nucleus)” value in series [1] is 19±3%; in series [2] it was 37±4%. For the same molecule, the entries for the “decrease in proliferation versus untreated cells” value with MMR-deficient cells (1 μM olaparib), in the series on MMR-deficient cells (3 μM olaparib) and in the series with MMR-deficient cells (10 μM olaparib) were 15%, 20% and 42%, respectively. Besides, the “increase in number of γH2AX foci compared to baseline” value in series [3] (10 μM olaparib) is recorded as 4-6 fold. Also, in series [3] (olaparib), the “number of γH2AX foci (in words)” value was “drastically increased”.
